Here are results for 4 compounds from patent US20250179057A1, “MEK IMMUNE ONCOLOGY INHIBITORS AND THERAPEUTIC USES THEREOF” (Immuneering Corporation, priority 2022, published 2025).

Series [1] can be described thus: Kinetic solubility (PBS pH 7.4; 4 hr). It is filed as physicochemical. The procedure, abridged:
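Compound shaken in PBS pH 7.4 for 4 h at room temperature, then centrifuged. Supernatant, diluted with DMSO, quantified by LC-UV peak area against DMSO calibration curves.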

A short description of series [2]: eLogD (lipophilicity; pH 7.4) by HPLC. The class given is physicochemical. How it is done: Test compounds were dissolved in DMSO at a concentration of 10 mM and further diluted with methanol:water 1:1. Samples were analyzed using gradient HPLC with three different isocratic mobile phases of 0.25% octanol in methanol (60, 65 and 70%) and 20 mM MOPS buffer (pH 7.4) with decylamine. If needed, (for low E log Doct compounds) the isocratic mobile phases were adjusted to e.g. 40, 45 and 50% methanol. Peaks were detected using a diode array at absorbance 220-320 nm.
Capacity factors data (k′_=(tr−_t0)/t0) obtained at various amounts of methanol were extrapolated to 0% methanol and k′w values are determined using a linear procedure. E log Doct (7.4) is calculated using a series of reference standards with known Log D values. Each experiment was performed in triplicate.

A short description of series [3]: Mouse pharmacokinetics (oral cassette dosing), plasma. Conditions: BALB/c immunocompetent mice, 5 mg/kg p.o. It is filed as in vivo. As for the experimental part: Female mice (BALC/c) received a single dose (3 mice/treatment) of vehicle (10% 1N HCl:90% [20% […]) and at 0.5, 1, 2, 4, 8, 12 and 24-hour post dose humanely euthanized.
Blood was obtained through cardiac puncture into K+EDTA tubes, mixed by inversion and centrifuged to obtain the plasma. Blood will be kept on ice or at approximately 4° C. prior. Centrifugation will take place within 30 minutes of blood collection affording plasma samples. Plasma samples will be frozen as soon as possible after centrifugation and stored at −80° C. until analysis. All samples will be analysed by means of LC-MS/MS. Method development for bioanalysis will be performed by pharmacokinetics Department of Crown Bioscience (Taicang) Inc. using LC-MS/MS analysis (using Waters HSS T3 2.1×50 mm (1.8 um) LC column, and an API-4000 Electrospray MS unit). The results of a kinetic solubility (free base) study are represented in Table 19.

The next series concerns the target T1, CYP1A2 (Homo sapiens, UniProt P05177).
T1 sequence (P05177 1-516): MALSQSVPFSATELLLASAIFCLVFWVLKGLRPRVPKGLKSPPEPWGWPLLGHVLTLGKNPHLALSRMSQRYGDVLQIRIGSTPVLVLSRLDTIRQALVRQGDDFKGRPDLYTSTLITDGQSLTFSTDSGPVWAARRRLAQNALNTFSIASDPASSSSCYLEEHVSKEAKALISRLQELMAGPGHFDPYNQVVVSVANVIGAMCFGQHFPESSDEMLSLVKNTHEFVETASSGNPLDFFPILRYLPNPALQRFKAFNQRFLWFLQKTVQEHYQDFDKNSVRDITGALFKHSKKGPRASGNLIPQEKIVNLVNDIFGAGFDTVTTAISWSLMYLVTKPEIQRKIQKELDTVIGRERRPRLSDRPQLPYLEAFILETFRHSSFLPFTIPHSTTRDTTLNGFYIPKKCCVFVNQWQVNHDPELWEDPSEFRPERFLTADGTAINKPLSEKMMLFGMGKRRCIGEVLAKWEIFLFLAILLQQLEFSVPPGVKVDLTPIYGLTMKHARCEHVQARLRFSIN
The experiment in a line: CYP450 panel inhibition in human liver microsomes, 1A2 (phenacetin). For orientation: Liver microsomes are a subcellular fraction often used to study metabolism.

For the next series, the target named is T2, CYP2C8 (Homo sapiens, UniProt P10632).
T2 sequence (P10632 1-490): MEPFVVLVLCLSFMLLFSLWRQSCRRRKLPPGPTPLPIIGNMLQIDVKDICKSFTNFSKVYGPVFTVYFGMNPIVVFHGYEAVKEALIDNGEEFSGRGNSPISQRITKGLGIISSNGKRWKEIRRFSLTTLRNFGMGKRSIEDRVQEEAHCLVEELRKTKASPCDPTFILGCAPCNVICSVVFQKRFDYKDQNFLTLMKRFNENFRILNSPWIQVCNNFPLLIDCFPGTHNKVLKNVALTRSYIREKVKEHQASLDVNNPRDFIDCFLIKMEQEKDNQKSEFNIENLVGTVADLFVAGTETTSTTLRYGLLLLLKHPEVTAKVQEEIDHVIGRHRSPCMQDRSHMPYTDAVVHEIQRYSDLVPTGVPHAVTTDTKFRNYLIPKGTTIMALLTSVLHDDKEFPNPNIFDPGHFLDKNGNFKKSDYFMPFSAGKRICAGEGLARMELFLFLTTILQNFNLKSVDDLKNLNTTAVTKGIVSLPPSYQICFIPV
The experiment in a line: CYP450 panel inhibition in human liver microsomes, 2C8 (amodiaquine). Conditions: 10 μM, substrate amodiaquine.

A short description of series [4]: Hepatocyte stability, human. It is filed as in vitro ADME. Conditions: 0.5 million cells/ml; for CLint scaled at 2 μM: human, hepatocytes. How it is done:
In this study, human, cynomolgus monkey, beagle dog, wistar hannover rat, and balb/c mouse hepatocyle stability was determined.

A further series deals with T3, CYP2B6 (Homo sapiens, UniProt P20813).
T3 sequence (P20813 1-491): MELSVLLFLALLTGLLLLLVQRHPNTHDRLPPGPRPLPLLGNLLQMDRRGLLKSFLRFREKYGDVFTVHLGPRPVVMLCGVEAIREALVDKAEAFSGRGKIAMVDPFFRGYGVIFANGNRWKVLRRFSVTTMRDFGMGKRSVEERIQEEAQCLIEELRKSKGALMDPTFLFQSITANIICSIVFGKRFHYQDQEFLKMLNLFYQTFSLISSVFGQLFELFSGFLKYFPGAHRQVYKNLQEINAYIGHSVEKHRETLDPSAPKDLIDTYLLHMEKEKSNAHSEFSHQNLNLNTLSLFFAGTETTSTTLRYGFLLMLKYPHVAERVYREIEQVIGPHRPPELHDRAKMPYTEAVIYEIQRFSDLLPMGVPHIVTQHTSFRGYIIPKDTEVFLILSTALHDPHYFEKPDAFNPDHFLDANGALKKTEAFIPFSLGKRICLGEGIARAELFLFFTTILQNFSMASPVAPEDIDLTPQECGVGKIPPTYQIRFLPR
The experiment in a line: in vitro. As to conditions: microsomes, pH 7.4.

The next series concerns the target CYP2D6 (Homo sapiens, UniProt P10635). The experiment in a line: in vitro. As to conditions: microsomes, pH 7.4.

≈ marks a conversion by molar mass, not a printed value. Structures can show the parent of a compound that is named as a salt. Where two headings read alike, the source gives them in different places. Bounds are passed on as bounds.

CYP2D6, sequence (P10635 whole entry): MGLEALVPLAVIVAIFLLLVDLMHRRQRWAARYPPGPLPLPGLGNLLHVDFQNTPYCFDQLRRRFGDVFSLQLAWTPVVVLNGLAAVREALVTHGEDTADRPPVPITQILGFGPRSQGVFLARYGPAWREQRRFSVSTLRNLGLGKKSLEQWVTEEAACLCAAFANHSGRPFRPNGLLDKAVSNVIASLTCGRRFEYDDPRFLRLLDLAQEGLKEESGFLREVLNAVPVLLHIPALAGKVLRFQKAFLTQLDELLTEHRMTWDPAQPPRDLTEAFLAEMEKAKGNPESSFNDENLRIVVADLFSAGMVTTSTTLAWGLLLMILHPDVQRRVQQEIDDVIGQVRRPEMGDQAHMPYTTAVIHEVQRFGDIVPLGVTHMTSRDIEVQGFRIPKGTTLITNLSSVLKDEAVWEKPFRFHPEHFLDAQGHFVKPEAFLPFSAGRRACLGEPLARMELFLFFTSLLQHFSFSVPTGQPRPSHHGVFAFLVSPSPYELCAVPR

With `Cn1cnc2c(F)c(Nc3ccc(Br)cc3Cl)c(C(=O)NOCCO)cc21` [Reference-1, Selumetinib], in series [1] (PBS buffer, aqueous buffer, kinetic from dmso stock, PBS pH = 7.4, 4 hr (Table 7), read-out: Kinetic Solubility (PBS pH = 7.4; 4 hr)), the solubility (kinetic) at 4 h was 36 µM (≈ 16.5 µg/mL). In addition, the chromatographic logD in series [2] turned out to be 3.6.

Regarding `CNS(=O)(=O)Nc1cccc(Cc2c(CN(C)C)c3ccc(OC(=O)N(C)C)cc3oc2=O)c1F` [Compound 9], the “Kinetic Solubility (PBS pH = 7.4; 4 hr)” value in series [1] (PBS pH = 7.4, 4 hr (Table 8)) is greater than 80 uM. The solubility (kinetic) at 4 h in series [1] (free base (Table 19), read-out: Kinetic Solubility) is on record as greater than 80 µM. In series [2], the “eLogD (lipophilicity; pH = 7.4)” value is listed as 3.0. In addition, in series [3], the “AUC0-∞” value stood at 445 ng·h/mL, the “AUC(0-t)” value was found to be 441 ng·h/mL, the “Cmax” value came out at 725 ng/mL and the “T1/2” value turned out to be 1.1 h. For the same compound, the “Tmax” value in series [3] is 0.083 h. Also, the “CYP-1A2 (Phenacetin) mean percentage CYP inhibition” value on CYP1A2 (human liver microsomes, 10 μM, substrate phenacetin) came out at 2.8%. In addition, the “CYP-2C8 (Amodiaquine) mean percentage CYP inhibition” value at CYP2C8 amounted to 15.5%.

In series [2], `CNS(=O)(=O)Nc1nccc(Cc2c(C)c3ccc(Oc4ncccn4)cc3oc2=O)c1F` [Reference-2, reference compound] displayed a chromatographic logD of 3.6.

Consider `CCS(=O)(=O)Nc1cccc(Cc2c(CN3CCNCC3)c3cc(Cl)c(OC(=O)N(C)C)cc3oc2=O)c1Cl` [Compound 257, 6-chloro-3-(2-chloro-3-(ethylsulfonamido)benzyl)-2-oxo-4-(piperazin-1-ylmethyl)-2H-chromen-7-yl dimethylcarbamate hydrochloride], for which the kinetic solubility at 4 h in series [1] (PBS buffer, pH 7.4, aqueous buffer, kinetic from dmso stock, free base (Table 19), read-out: Kinetic Solubility) is greater than 80 µM. Further, the AUC(0-t) in series [3] (female, mouse, read-out: AUC0-t) was 103 ng·h/mL. Also, the highest concentration (Cmax) in series [3] (female, mouse, read-out: Cmax) is 20.3 ng/mL. The time of peak concentration (Tmax) in series [3] (female, mouse, read-out: Tmax) is 4 h. Also, the half-life at 2 μM in series [4] (human hepatocytes, 120 min) stood at 719 min. In addition, the CLint scaled at 2 μM was 0.312 L/h/kg in series [4] (read-out: CLint (L/hr/kg) (converted)) and 0.313 L/h/kg in series [4] (read-out: CLint (mL/min/kg)). The inhibition at 30 min, 10 µM at CYP2B6 was 13.7%; at CYP2D6, 10.1%; against CYP1A2 (human, microsomes, pH 7.4), 9.9%.

In general, kinetic solubility refers to the concentration staying in solution when a stock, usually in DMSO, is diluted into the medium. What is called chromatographic logD is a lipophilicity value derived from retention on a column. Lower therefore signals lower lipophilicity. A word on the Cmax: it is the highest concentration seen after dosing. A word on the Tmax: it is the time from dosing to the highest level. A word on the half-life: it is how long it takes for the measured level to halve. A higher half-life goes with slow decline. A word on the inhibition: it is the change of the read-out against control, counted positive when it falls.
